Test: xn = mol fraction of the nth substance listed
Details: 298.15 K, 100 kPa

`CC(=O)[O-].Cn1cc[nH+]c1` + CC(=O)[O-].C[NH+]1CCOCC1 showed an electrical conductivity (x1 = 1) of 0.448 S/m.
`CC(=O)[O-].C[NH+]1CCOCC1` + CC(=O)[O-].Cn1cc[nH+]c1 gave an electrical conductivity (x2 = 0) of 0.0229 S/m, an electrical conductivity (x2 = 0.1) of 0.0447 S/m and an electrical conductivity (x2 = 0.19) of 0.0662 S/m. The electrical conductivity (x2 = 0.31) was 0.0959 S/m, the electrical conductivity (x2 = 0.4) was 0.158 S/m and the electrical conductivity (x2 = 0.5) was 0.202 S/m. It also gave an electrical conductivity (x2 = 0.59) of 0.242 S/m and an electrical conductivity (x2 = 0.8) of 0.331 S/m.
With `CCCC[N+]1(C)CCCC1.O=S(=O)([N-]S(=O)(=O)C(F)(F)F)C(F)(F)F` + CC(=O)[O-].Cn1cc[nH+]c1 the viscosity (x2 = 0) was 74.9 mPa·s.
`CCCC[n+]1ccn(C)c1.O=S(=O)([N-]S(=O)(=O)C(F)(F)F)C(F)(F)F` + CC(=O)[O-].Cn1cc[nH+]c1 showed a viscosity (x2 = 0) of 49.3 mPa·s.
`COS(=O)(=O)[O-].Cn1cc[n+](C)c1` + CC(=O)[O-].Cn1cc[nH+]c1 showed a viscosity (x2 = 0) of 93.4 mPa·s.
With `CC(=O)[O-].Cn1cc[nH+]c1` + CCCC[N+]1(C)CCCC1.O=S(=O)([N-]S(=O)(=O)C(F)(F)F)C(F)(F)F the viscosity (x1 = 0.1) was 59.5 mPa·s, the viscosity (x1 = 0.31) was 38.8 mPa·s and the viscosity (x1 = 0.4) was 33.3 mPa·s. The viscosity (x1 = 0.59) was 21.1 mPa·s, the viscosity (x1 = 0.71) was 15.9 mPa·s and the viscosity (x1 = 0.8) was 12.1 mPa·s.
`CC(=O)[O-].Cn1cc[nH+]c1` + CCCC[n+]1ccn(C)c1.O=S(=O)([N-]S(=O)(=O)C(F)(F)F)C(F)(F)F gave a viscosity (x1 = 0.1) of 42.8 mPa·s, a viscosity (x1 = 0.19) of 38.4 mPa·s and a viscosity (x1 = 0.31) of 33.5 mPa·s. The viscosity (x1 = 0.4) was 28.8 mPa·s, the viscosity (x1 = 0.5) was 24.5 mPa·s and the viscosity (x1 = 0.59) was 20.2 mPa·s. For the same compound, the viscosity (x1 = 0.71) was 15.5 mPa·s, the viscosity (x1 = 0.8) was 12.2 mPa·s and the viscosity (x1 = 1) was 6.22 mPa·s.
With `CC(=O)[O-].Cn1cc[nH+]c1` + COS(=O)(=O)[O-].Cn1cc[n+](C)c1 the viscosity (x1 = 0.71) was 19.9 mPa·s, the viscosity (x1 = 0.8) was 13.6 mPa·s and the viscosity (x1 = 1) was 6.22 mPa·s.

Source: a compilation of properties of binary mixtures (doi:10.1016/j.molliq.2018.12.024)
